In experiment [1] the test system is Hela cells transiently transfected with APP Swedish/Indiana double mutant (APPSw-I). Kind of experiment: Ab 40 ELISA of supernatants of Hela cells transfected with APPSw-I construct. Format: cell-based, human. The note with it: treated two days with 10000, 1000, 100, 1 nM, FIG. 1. The text has this:
(§1) The Amyloid precursor protein (APP) can be processed by proteases, first by beta secretase (BACE1) then followed by gamma secretase to generate peptide fragments including sizes of 40 and 42 amino acids named abeta (Ab), e.g. Ab 1-40 and Ab 1-42. Several familial Alzheimer disease-related mutations and truncated mutants in the APP gene have been described in the investigation of APP processing to Ab in vitro and in vivo. […] Briefly, two constructs were used to generate Ab:(1) APP Swedish/Indiana double mutant (APPSw-I) in the 695 amino acid APP construct combines the Swedish mutant APP K670N, M671L (Mullan M et al, A pathogenic mutation for probable Alzheimer's disease in the APP gene at the N-terminus of beta-amyloid. Nat Genet., 1992 August; 1(5):345-7) and the Indiana mutation APP V717F (Suzuki N et al, An increased percentage of long amyloid beta protein secreted by familial amyloid beta protein precursor (beta APP717) mutants. Science, 1994 May 27; 264(5163): 1336-40); and (2) C99 APP truncated mutant (C99) fragment encoding the last 99-aa of APP 695, this construct mimics the BACE1 cleaved APP at the major Asp+1 site of Aβ to generate C99. […]

For experiment [2], the system named is Hela cells transiently transfected with C99 APP truncated mutant (C99). Kind of experiment: Ab 40 ELISA of supernatants of Hela cells transfected with C99 construct. The format is cell-based, human. The note with it: treated two days with 10000, 1000, 100, 1 nM, FIG. 2.
Description: as §1

The structures appear in SMILES notation.

The record followed here is US20190365771A1, “APILIMOD COMPOSITIONS AND METHODS FOR USING SAME IN THE TREATMENT OF ALZHEIMER'S DISEASE” (AI Therapeutics, Inc., priority 2016, published 2019).

On to `Cc1cccc(/C=N/Nc2cc(N3CCOCC3)nc(OCCc3ccccn3)n2)c1` [apilimod], for which the “Ab concentration in cell culture supernatant” value in experiment [1] and in experiment [2] was “dose dependent decrease of Ab” each time.
